Test results published in US8071507B2, “Plant growth regulating and fungicidal compositions” (Syngenta Crop Protection, Inc., priority 2005, dated 2011).

Columns and labels:
Assay type in all cases: in vivo
[1] = test system: Winter rape “Colza d'hiver Aviso”; assay: Plant growth regulation (PGR), post-emergence, winter rape; conditions: 14 days after application
Description: (§1) The plants are seeded and grown in a greenhouse until Growth Stage 12 (2 leafs unfolded). Then the compounds/mixture of the compounds are sprayed with a vertical boom sprayer top over the leafs.

Soybean = assay: Plant growth regulation (PGR), pre-emergence, soybean; conditions: 14 days
Description: (§2) The compounds are sprayed with a vertical boom sprayer at the mentioned rates (ref. result-tables) pre-plant on the bare soil, then they are incorporated into the soil and the plants are seeded.

Triticale = assay: Plant growth regulation (PGR), pre-emergence, triticale; conditions: 14 days
Description: as §2

Barley = assay: Plant growth regulation (PGR), pre-emergence, barley; conditions: 14 days
Description: as §2

Wheat = assay: Plant growth regulation (PGR), pre-emergence, wheat; conditions: 14 days
Description: as §2

Oat = assay: Plant growth regulation (PGR), pre-emergence, oat; conditions: 14 days
Description: as §2

Oilseed Rape = assay: Plant growth regulation (PGR), pre-emergence, oilseed rape; conditions: 14 days
Description: as §2

Rye = assay: Plant growth regulation (PGR), pre-emergence, rye; conditions: 14 days
Description: as §2

Summer rape “Hybridol” = assay: Plant growth regulation (PGR), post-emergence, summer rape; conditions: 14 days after application
Description: as §1

## CC(C)(C)[C@@H](O)[C@@H](Cc1ccc(Cl)cc1)n1cncn1 (racemic) [Paclobutrazole, (2RS,3RS)-1-(4-chlorophenyl)-4,4-dimethyl-2-(1H-1,2,4-triazol-1-yl)-pentan-3-ol]
[1]; Paclobutrazole 31.3 g a.i./ha
  Observed PGR in % (% Cobs): 30%
[1]; Paclobutrazole 62.5 g a.i./ha
  Observed PGR in % (% Cobs): 33%
Soybean; Paclobutrazole 25 mg/L
  Observed PGR in % (% Cobs): 30%
Soybean; Paclobutrazole 50 mg/L
  Observed PGR in % (% Cobs): 50%
Triticale; Paclobutrazole 25 mg/L
  Observed PGR in % (% Cobs): 10%
Triticale; Paclobutrazole 50 mg/L
  Observed PGR in % (% Cobs): 30%
Barley; Paclobutrazole 12.5 mg/L
  Observed PGR in % (% Cobs): 0%
Barley; Paclobutrazole 25 mg/L
  Observed PGR in % (% Cobs): 10%
Barley; Paclobutrazole 50 mg/L
  Observed PGR in % (% Cobs): 30%
Wheat; Paclobutrazole 12.5 mg/L
  Observed PGR in % (% Cobs): 20%
Wheat; Paclobutrazole 25 mg/L
  Observed PGR in % (% Cobs): 25%
Wheat; Paclobutrazole 50 mg/L
  Observed PGR in % (% Cobs): 40%
Oat; Paclobutrazole 25 mg/L
  Observed PGR in % (% Cobs): 30%
Oat; Paclobutrazole 50 mg/L
  Observed PGR in % (% Cobs): 40%
Oilseed Rape; Paclobutrazole 12.5 mg/L
  Observed PGR in % (% Cobs): 40%
Oilseed Rape; Paclobutrazole 25 mg/L
  Observed PGR in % (% Cobs): 50%
Oilseed Rape; Paclobutrazole 50 mg/L
  Observed PGR in % (% Cobs): 55%
Rye; Paclobutrazole 25 mg/L
  Observed PGR in % (% Cobs): 25%
Rye; Paclobutrazole 50 mg/L
  Observed PGR in % (% Cobs): 40%
Summer rape “Hybridol”; Paclobutrazole 31.3 g a.i./ha
  Observed PGR in % (% Cobs): 17%
Summer rape “Hybridol”; Paclobutrazole 62.5 g a.i./ha
  Observed PGR in % (% Cobs): 23%

## CC1COC(Cn2cncn2)(c2ccc(Oc3ccc(Cl)cc3)cc2Cl)O1 (stereo not drawn) [Difenoconazole, 1-[2-[2-chloro-4-(4-chlorophenoxy)phenyl]-4-methyl-1,3-dioxolan-2-ylmethyl]-1H-1,2,4-triazole]
[1]; Difenoconazole 62.5 g a.i./ha
  Observed PGR in % (% Cobs): 0%
[1]; Difenoconazole 125 g a.i./ha
  Observed PGR in % (% Cobs): 0%
Soybean; Difenoconazole 50 mg/L
  Observed PGR in % (% Cobs): 0%
Soybean; Difenoconazole 100 mg/L
  Observed PGR in % (% Cobs): 0%
Triticale; Difenoconazole 50 mg/L
  Observed PGR in % (% Cobs): 0%
Triticale; Difenoconazole 100 mg/L
  Observed PGR in % (% Cobs): 0%
Barley; Difenoconazole 25 mg/L
  Observed PGR in % (% Cobs): 0%
Barley; Difenoconazole 50 mg/L
  Observed PGR in % (% Cobs): 0%
Barley; Difenoconazole 100 mg/L
  Observed PGR in % (% Cobs): 0%
Wheat; Difenoconazole 25 mg/L
  Observed PGR in % (% Cobs): 0%
Wheat; Difenoconazole 50 mg/L
  Observed PGR in % (% Cobs): 0%
Wheat; Difenoconazole 100 mg/L
  Observed PGR in % (% Cobs): 0%
Oat; Difenoconazole 50 mg/L
  Observed PGR in % (% Cobs): 0%
Oat; Difenoconazole 100 mg/L
  Observed PGR in % (% Cobs): 0%
Oilseed Rape; Difenoconazole 25 mg/L
  Observed PGR in % (% Cobs): 0%
Oilseed Rape; Difenoconazole 50 mg/L
  Observed PGR in % (% Cobs): 0%
Oilseed Rape; Difenoconazole 100 mg/L
  Observed PGR in % (% Cobs): 0%
Rye; Difenoconazole 50 mg/L
  Observed PGR in % (% Cobs): 0%
Rye; Difenoconazole 100 mg/L
  Observed PGR in % (% Cobs): 0%
Summer rape “Hybridol”; Difenoconazole 62.5 g a.i./ha
  Observed PGR in % (% Cobs): 0%
Summer rape “Hybridol”; Difenoconazole 125 g a.i./ha
  Observed PGR in % (% Cobs): 0%
